Assay results taken from patent US20230002359A1, “PESTICIDALLY ACTIVE FUSED BICYCLIC HETEROAROMATIC COMPOUNDS” (priority 2019, published 2023).

Columns and labels:
Type in all cases: in vivo
[1] = system: Myzus persicae (Green Peach Aphid); assay: Example B6: Myzus persicae (green peach aphid) intrinsic activity, sucrose solution; conditions: 120 h, test rate of 12 ppm, 5 days after infestation, intrinsic activity, read-out: mortality
Outline: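 Compounds from 10′000 ppm DMSO stocks were mixed into sucrose solution in 24-well plates sealed with Parafilm. Aphid-infested pea seedlings were set on the membrane and the plate inverted so aphids fed through it. Mortality scored 5 days after infestation.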

[2] = system: Plutella xylostella (Diamond Back Moth); assay: Example B4: Plutella xylostella (diamond back moth), artificial diet, eggs, 24-well; conditions: 192 h, application rate of 200 ppm, 8 days after infestation, eggs, read-out: control in at least one of the two categories (mortality or growth inhibition)
Method: 24-well microtiter plates with artificial diet were treated with aqueous test solutions prepared from 10′000 ppm DMSO stock solutions by pipetting. After drying, Plutella eggs were pipetted through a plastic stencil onto a gel blotting paper and the plate was closed with it. The samples were assessed for mortality and growth inhibition in comparison to untreated samples 8 days after infestation.

[3] = system: Spodoptera littoralis (Egyptian Cotton Leaf Worm); assay: Example B7: Spodoptera littoralis (Egyptian cotton leaf worm), cotton leaf discs sprayed, L1 larvae; conditions: foliar, 72 h, application rate of 200 ppm, 3 days after infestation, L1 larvae, read-out: control in at least one of the three categories (mortality, anti-feedant effect, or growth inhibition)
Outline: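 Leaf discs on agar sprayed with aqueous dilutions of 10′000 ppm DMSO stocks, dried, then infested with five L1 larvae. Mortality, anti-feeding and growth inhibition scored versus untreated 3 days after infestation; control given when any category exceeds untreated.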

[4] = system: Diabrotica Balteata (Corn Root Worm); assay: Example B1: Diabrotica balteata (corn root worm), maize sprouts sprayed, L2 larvae; conditions: 96 h, application rate of 200 ppm, 4 days after infestation, L2 larvae, read-out: control in at least one of the two categories (mortality or growth inhibition)
Outline: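 Read-out is mortality plus growth inhibition relative to untreated controls, assessed 4 days after infestation. Sprouts resting on agar are sprayed with aqueous solutions derived from 10′000 ppm DMSO stocks and left to dry before L2 larvae (6 to 10 per well) are added.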

[5] = system: Chilo suppressalis (Striped Rice Stemborer); assay: Example B3: Chilo suppressalis (striped rice stemborer), artificial diet, L2 larvae; conditions: 144 h, application rate of 200 ppm, 6 days after infestation, L2 larvae, read-out: control in at least one of the three categories (mortality, anti-feedant effect, or growth inhibition)
Outline: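 Artificial diet in wells was treated with aqueous test solutions diluted from 10'000 ppm DMSO stocks, dried, then infested with 6-8 L2 larvae per well. Mortality, anti-feeding effect and growth inhibition were scored against untreated samples 6 days after infestation; control means any category exceeds the untreated sample.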

[6] = system: Myzus persicae (Green Peach Aphid); assay: Example B5: Myzus persicae (green peach aphid) feeding/contact activity, sunflower leaf discs; conditions: foliar, 144 h, application rate of 200 ppm, 6 days after infestation
Method: Sunflower leaf discs were placed onto agar in a 24-well microtiter plate and sprayed with aqueous test solutions prepared from 10′000 ppm DMSO stock solutions. After drying, the leaf discs were infested with an aphid population of mixed ages. The samples were assessed for mortality 6 days after infestation.

[7] = system: Euschistus heros (Neotropical Brown Stink Bug); assay: Example B2: Euschistus heros (neotropical brown stink bug), soybean leaves sprayed, N2 nymphs; conditions: 120 h, application rate of 200 ppm, 5 days after infestation, N2 nymphs, read-out: control in at least one of the two categories (mortality or growth inhibition)
Method: Soybean leaves on agar in 24-well microtiter plates were sprayed with aqueous test solutions prepared from 10′000 ppm DMSO stock solutions. After drying the leaves were infested with N2 nymphs. The samples were assessed for mortality and growth inhibition in comparison to untreated samples 5 days after infestation.

CCN(c1ncnc2c(C(F)(F)F)cc(C(F)(F)F)cc12)[C@@H](C)c1ncnn1-c1ccc(C#N)cn1 [P.168, 6-[5-[(1S)-1-[[6,8-bis(trifluoromethyl)quina-zolin-4-yl]-ethyl-amino]ethyl]-1,2,4-triazol-1-yl]pyridine-3-carbonitrile]
≥ 80%: mortality at 12 ppm [1] | percent control (mortality or growth inhibition) at 200 ppm [2] | percent control (mortality, anti-feedant effect or growth inhibition) at 200 ppm [3] | percent control (mortality or growth inhibition) at 200 ppm [4] | percent control (mortality, anti-feedant effect or growth inhibition) at 200 ppm [5] | mortality at 200 ppm [6] | percent control (mortality or growth inhibition) at 200 ppm [7]

CC(c1ncnn1-c1ncccn1)N(C)c1ncnc2c(Br)cc(Cl)cc12 (centres unmarked) [P.172, 8-bromo-6-chloro-N-methyl-N-[1-(2-pyrimidin-2-yl-1,2,4-triazol-3-yl)ethyl]quinazolin-4-amine]
≥ 80%: mortality at 12 ppm [1] | percent control (mortality or growth inhibition) at 200 ppm [2] | percent control (mortality, anti-feedant effect or growth inhibition) at 200 ppm [3] | percent control (mortality or growth inhibition) at 200 ppm [4] | percent control (mortality, anti-feedant effect or growth inhibition) at 200 ppm [5] | mortality at 200 ppm [6] | percent control (mortality or growth inhibition) at 200 ppm [7]

C[C@@H](c1ncnn1-c1ncccn1)N(C)c1ncnc2c(C(F)(F)C3CC3)cc(C(F)(F)F)cc12 [P.201, 8-[cyclopropyl(difluoro)meth-yl]-N-methyl-N-[(1S)-1-(2-pyrimidin-2-yl-1,2,4-triazol-3-yl)ethyl]-6-(trifluoromethyl)quinazolin-4-amine]
≥ 80%: mortality at 12 ppm [1] | percent control (mortality or growth inhibition) at 200 ppm [2] | percent control (mortality, anti-feedant effect or growth inhibition) at 200 ppm [3] | percent control (mortality or growth inhibition) at 200 ppm [4] | percent control (mortality, anti-feedant effect or growth inhibition) at 200 ppm [5] | mortality at 200 ppm [6] | percent control (mortality or growth inhibition) at 200 ppm [7]

C[C@H](c1ncnn1-c1ccc(C#N)cn1)N(C)c1ncnc2c(C(F)(F)F)cc(Br)cc12 [P.203, 6-[5-[(1R)-1-[[6-bromo-8-(trifluoromethyl)quinazolin-4-yl]-methyl-amino]ethyl]-1,2,4-triazol-1-yl]pyridine-3-carbonitrile]
≥ 80%: mortality at 12 ppm [1] | percent control (mortality or growth inhibition) at 200 ppm [2] | percent control (mortality, anti-feedant effect or growth inhibition) at 200 ppm [3] | percent control (mortality or growth inhibition) at 200 ppm [4] | percent control (mortality, anti-feedant effect or growth inhibition) at 200 ppm [5] | mortality at 200 ppm [6] | percent control (mortality or growth inhibition) at 200 ppm [7]

C[C@@H](c1ncnn1-c1ccc(C#N)cn1)N(C)c1ncnc2c(SC(F)(F)F)cc(C(F)(F)F)cc12 [P.215, 6-[5-[(1S)-1-[methyl-[6-(trifluoromethyl)-8-(trifluoromethylsulfanyl)quinazolin-4-yl]amino]ethyl]-1,2,4-triazol-1-yl]pyridine-3-carbonitrile]
≥ 80%: mortality at 12 ppm [1] | percent control (mortality or growth inhibition) at 200 ppm [2] | percent control (mortality, anti-feedant effect or growth inhibition) at 200 ppm [3] | percent control (mortality or growth inhibition) at 200 ppm [4] | percent control (mortality, anti-feedant effect or growth inhibition) at 200 ppm [5] | mortality at 200 ppm [6] | percent control (mortality or growth inhibition) at 200 ppm [7]
